Test results as given in EP3120851A1, “4-AMINO-6-(2,6-DICHLOROPHENYL)-8-METHYL-2-(PHENYLAMINO)-PYRIDO[2,3-D]PYRIMIDIN-7(8H)-ONE FOR TREATMENT OF SOLID CANCERS” (Pangaea Biotech S.L., priority 2015, dated 2017).

Tests used:
Assay in all cases: radiometric protein kinase assay (33PanQinase Activity Assay)
Format in all cases: biochemical
Conditions in all cases: singlicate, read-out: residual activity
[1] = biological target: T1, DDR2 N456S (Homo sapiens, UniProt Q16832, N456S)
T1 construct: GST or His (not specified per kinase); purchased ProQinase (panel service); host or cells: Sf9 insect cells or E. coli
Protocol: (§1) In a first experiment, the kinase inhibition profile of the compound of formula (1) was evaluated at Proqinase (http://www.proqinase.com) by measuring residual activity values at a concentration of 10 µM of the test compound in singlicate in front of the following kinases: ABL2, EPHA3, CSF1-R, DDR2 wt, DDR2 N456 S, EGF-R d746-750, EGF-R d747-752/P753S, EGF-R G719C, EGF-R G719S, EGF-R L858R, EGF-R L861Q, EGF-R wt, EPHA1, EPHA2, EPHB1, ERBB4, LCK, MINK1, RAF1 Y340D/Y341D (untagged), RIPK2, STK17A. In a second experiment, the kinase inhibition profile of the compound of formula (1) was evaluated at Proqinase (http://www.proqinase.com) by measuring residual activity values at a concentration of 0.5 and 10 µM of the test compound in singlicate in front of a panel of 300 kinases using the following protocol:
(§2) The compounds were dissolved to 1 x 10^-03 M stock solutions in 100% DMSO. Subsequently, 100 µl of each stock solution were transferred into wells A3-F12 of a microtiter plate ("master plate"). Wells A1-F2 were filled with 100 µl 100% DMSO as controls. 5 x 10 µl of the master plate were aliquoted into 5 copy plates, which were stored at -20° Celsius until use. For the testing of each group of up to 8 kinases, one copy plate was used.
(§3) In the process, 90 µl H2O were added to each well of a copy plate. To minimize precipitation, the H2O was added to each well only a few minutes before the transfer of the compound solutions into the assay plates. The plate was shaken thoroughly, resulting in a "compound dilution plate" with a compound concentration of 1 x 10^-04 M/10 % DMSO. This plate was used for the transfer of 5 µl compound solution into the assay plates. The final volume of the assay was 50 µl. All compounds were tested at 1 x 10^-05 M in singlicate. The final DMSO concentration in the reaction cocktails was 1 % in all cases. The compound dilution plates were disposed at the end of each working day.
(§4) A radiometric protein kinase assay (^33PanQinase® Activity Assay) was used for measuring the kinase activity of the corresponding protein kinases. All kinase assays were performed in 96-well FlashPlatesTM from Perkin Elmer (Boston, MA, USA) in a 50 µl reaction volume. The reaction cocktail was pipetted in 4 steps in the following order: • 10 µl of non-radioactive ATP solution (in H2O) • 25 µl of assay buffer/ [γ-33P]-ATP mixture • 5 µl of test sample in 10% DMSO • 10 µl of enzyme/substrate mixture
(§5) The protein kinase reaction cocktails were incubated at 30°C for 60 minutes. The reaction was stopped with 50 µl of 2 % (v/v) H3PO4, plates were aspirated and washed two times with 200 µl 0.9 % (w/v) NaCl. All assays were performed with a BeckmanCoulter Biomek 2000/SL robotic system. Incorporation of ^33Pi (counting of "cpm") was determined with a microplate scintillation counter (Microbeta, Wallac).
(§6) All protein kinase assays were performed with a BeckmanCoulter Core robotic system.
(§7) All protein kinases provided by ProQinase were expressed in Sf9 insect cells or in E.coli as recombinant GST-fusion proteins or His-tagged proteins. All kinases were produced from human cDNAs and purified by either GSH-affinity chromatography or immobilized metal. Affinity tags were removed from a number of kinases during purification. The purity of the protein kinases was examined by SDS-PAGE/Coomassie staining, the identity was checked by mass spectroscopy.
(§8) Kinases from external vendors (CAR = Carna Biosciences Inc.; INV = Life Technologies (Invitrogen Corporation); MIL = Merck-Millipore (Millipore Corporation)) were expressed, purified and quality-controlled by virtue of the vendors readings.
(§9) For each kinase, the median value of the cpm of six wells of column 1 of each assay plate was defined as "low control" (n=6). This value reflects unspecific binding of radioactivity to the plate in the absence of a protein kinase but in the presence of the substrate. […]

[2] = biological target: T2, DDR2 wt (Homo sapiens, UniProt Q16832)
T2 construct: GST or His (not specified per kinase); purchased ProQinase (panel service); host or cells: Sf9 insect cells or E. coli
Protocol: as §1, §2, §3, §4, §5, §6, §7, §8, §9

[3] = biological target: T3, EGF-R G719S (Homo sapiens, UniProt P00533, G719S)
T3 construct: GST or His (not specified per kinase); purchased ProQinase (panel service); host or cells: Sf9 insect cells or E. coli
Protocol: as §1, §2, §3, §4, §5, §6, §7, §8, §9

[4] = biological target: T4, EGF-R L858R (Homo sapiens, UniProt P00533, L858R)
T4 construct: GST or His (not specified per kinase); purchased ProQinase (panel service); host or cells: Sf9 insect cells or E. coli
Protocol: as §1, §2, §3, §4, §5, §6, §7, §8, §9

[5] = biological target: T5, EGF-R L861Q (Homo sapiens, UniProt P00533, L861Q)
T5 construct: GST or His (not specified per kinase); purchased ProQinase (panel service); host or cells: Sf9 insect cells or E. coli
Protocol: as §1, §2, §3, §4, §5, §6, §7, §8, §9

[6] = biological target: T6, EGF-R d746-750 (Homo sapiens, UniProt P00533, DEL746-750)
T6 construct: GST or His (not specified per kinase); purchased ProQinase (panel service); host or cells: Sf9 insect cells or E. coli
Protocol: as §1, §2, §3, §4, §5, §6, §7, §8, §9

[7] = biological target: T7, EGF-R d747-752/P753S (Homo sapiens, UniProt P00533, DEL747-752/P753S)
T7 construct: GST or His (not specified per kinase); purchased ProQinase (panel service); host or cells: Sf9 insect cells or E. coli
Protocol: as §1, §2, §3, §4, §5, §6, §7, §8, §9

[8] = biological target: T8, EGF-R wt (Homo sapiens, UniProt P00533)
T8 construct: GST or His (not specified per kinase); purchased ProQinase (panel service); host or cells: Sf9 insect cells or E. coli
Protocol: as §1, §2, §3, §4, §5, §6, §7, §8, §9

[9] = biological target: T9, EPHA1 (Homo sapiens, UniProt P21709)
T9 construct: GST or His (not specified per kinase); purchased ProQinase (panel service); host or cells: Sf9 insect cells or E. coli
Protocol: as §1, §2, §3, §4, §5, §6, §7, §8, §9

[10] = biological target: T10, EPHA2 (Homo sapiens, UniProt P29317)
T10 construct: GST or His (not specified per kinase); purchased ProQinase (panel service); host or cells: Sf9 insect cells or E. coli
Protocol: as §1, §2, §3, §4, §5, §6, §7, §8, §9

[11] = biological target: T11, EPHA3 (Homo sapiens, UniProt P29320)
T11 construct: GST or His (not specified per kinase); purchased ProQinase (panel service); host or cells: Sf9 insect cells or E. coli
Protocol: as §1, §2, §3, §4, §5, §6, §7, §8, §9

[12] = biological target: T12, EPHB1 (Homo sapiens, UniProt P54762)
T12 construct: GST or His (not specified per kinase); purchased ProQinase (panel service); host or cells: Sf9 insect cells or E. coli
Protocol: as §1, §2, §3, §4, §5, §6, §7, §8, §9

[13] = biological target: T13, ERBB4 (Homo sapiens, UniProt Q15303)
T13 construct: GST or His (not specified per kinase); purchased ProQinase (panel service); host or cells: Sf9 insect cells or E. coli
Protocol: as §1, §2, §3, §4, §5, §6, §7, §8, §9

[14] = biological target: T14, LCK (Homo sapiens, UniProt P06239)
T14 construct: GST or His (not specified per kinase); purchased ProQinase (panel service); host or cells: Sf9 insect cells or E. coli
Protocol: as §1, §2, §3, §4, §5, §6, §7, §8, §9

T4 sequence (P00533 25-1210 L858R): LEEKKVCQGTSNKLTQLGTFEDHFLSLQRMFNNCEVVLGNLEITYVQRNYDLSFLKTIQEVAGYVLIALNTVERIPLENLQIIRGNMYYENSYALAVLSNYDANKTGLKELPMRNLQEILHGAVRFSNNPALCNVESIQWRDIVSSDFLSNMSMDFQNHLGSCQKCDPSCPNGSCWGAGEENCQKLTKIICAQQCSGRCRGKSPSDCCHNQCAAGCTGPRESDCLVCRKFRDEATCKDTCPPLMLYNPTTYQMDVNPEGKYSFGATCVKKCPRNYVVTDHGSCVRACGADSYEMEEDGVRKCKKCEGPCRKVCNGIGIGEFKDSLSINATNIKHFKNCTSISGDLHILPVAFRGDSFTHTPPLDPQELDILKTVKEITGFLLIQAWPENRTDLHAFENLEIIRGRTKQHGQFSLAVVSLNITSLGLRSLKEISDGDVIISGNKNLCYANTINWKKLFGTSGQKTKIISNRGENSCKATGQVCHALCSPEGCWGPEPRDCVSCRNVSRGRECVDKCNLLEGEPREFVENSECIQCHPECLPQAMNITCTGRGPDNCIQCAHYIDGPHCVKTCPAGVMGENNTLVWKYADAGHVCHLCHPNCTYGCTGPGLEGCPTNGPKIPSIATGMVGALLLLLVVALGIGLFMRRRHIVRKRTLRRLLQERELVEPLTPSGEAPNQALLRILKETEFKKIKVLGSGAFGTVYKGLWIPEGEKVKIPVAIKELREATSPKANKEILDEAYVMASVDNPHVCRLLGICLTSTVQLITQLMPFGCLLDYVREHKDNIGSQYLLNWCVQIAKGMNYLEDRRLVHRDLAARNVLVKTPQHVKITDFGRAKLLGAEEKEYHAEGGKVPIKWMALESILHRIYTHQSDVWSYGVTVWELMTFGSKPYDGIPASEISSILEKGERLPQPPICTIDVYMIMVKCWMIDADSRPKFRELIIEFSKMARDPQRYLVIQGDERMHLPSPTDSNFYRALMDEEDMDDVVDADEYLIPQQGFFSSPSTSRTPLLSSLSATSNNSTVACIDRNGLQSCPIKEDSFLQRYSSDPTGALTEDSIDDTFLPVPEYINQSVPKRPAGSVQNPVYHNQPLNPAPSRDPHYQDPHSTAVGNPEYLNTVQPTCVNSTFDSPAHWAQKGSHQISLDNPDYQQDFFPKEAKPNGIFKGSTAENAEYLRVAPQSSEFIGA
T6 sequence (P00533 with tags, fused parts or gaps DEL746-750 limits assumed): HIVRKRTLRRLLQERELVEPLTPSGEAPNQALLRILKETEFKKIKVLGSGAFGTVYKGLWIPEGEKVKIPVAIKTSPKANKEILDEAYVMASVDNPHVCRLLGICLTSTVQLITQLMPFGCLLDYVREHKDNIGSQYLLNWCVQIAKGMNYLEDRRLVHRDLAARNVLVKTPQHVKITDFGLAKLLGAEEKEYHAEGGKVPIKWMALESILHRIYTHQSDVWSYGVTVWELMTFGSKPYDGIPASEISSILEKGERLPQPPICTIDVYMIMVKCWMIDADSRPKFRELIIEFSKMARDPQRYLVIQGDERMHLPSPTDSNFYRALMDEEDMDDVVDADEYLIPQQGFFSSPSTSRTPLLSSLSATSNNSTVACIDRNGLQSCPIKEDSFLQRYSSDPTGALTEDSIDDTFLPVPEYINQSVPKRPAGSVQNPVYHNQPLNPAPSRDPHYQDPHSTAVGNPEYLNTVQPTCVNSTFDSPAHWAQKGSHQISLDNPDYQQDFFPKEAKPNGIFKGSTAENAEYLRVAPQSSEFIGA
T7 sequence (P00533 with tags, fused parts or gaps DEL747-752/P753S limits assumed): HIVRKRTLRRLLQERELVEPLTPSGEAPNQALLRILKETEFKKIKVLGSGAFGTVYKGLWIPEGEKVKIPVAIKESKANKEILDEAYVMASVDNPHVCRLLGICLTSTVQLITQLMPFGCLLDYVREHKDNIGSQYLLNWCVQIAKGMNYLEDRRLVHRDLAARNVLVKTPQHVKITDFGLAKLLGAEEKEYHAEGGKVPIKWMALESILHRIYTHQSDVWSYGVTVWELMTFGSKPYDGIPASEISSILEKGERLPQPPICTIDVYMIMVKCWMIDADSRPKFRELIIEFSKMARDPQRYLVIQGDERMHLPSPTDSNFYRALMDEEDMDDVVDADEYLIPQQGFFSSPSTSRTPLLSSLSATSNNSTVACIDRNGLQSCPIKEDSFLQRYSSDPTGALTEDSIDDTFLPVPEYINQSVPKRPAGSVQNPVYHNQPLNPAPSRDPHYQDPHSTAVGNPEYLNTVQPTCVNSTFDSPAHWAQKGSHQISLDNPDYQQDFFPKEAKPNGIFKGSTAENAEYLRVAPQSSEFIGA
T8 sequence (P00533 25-1210): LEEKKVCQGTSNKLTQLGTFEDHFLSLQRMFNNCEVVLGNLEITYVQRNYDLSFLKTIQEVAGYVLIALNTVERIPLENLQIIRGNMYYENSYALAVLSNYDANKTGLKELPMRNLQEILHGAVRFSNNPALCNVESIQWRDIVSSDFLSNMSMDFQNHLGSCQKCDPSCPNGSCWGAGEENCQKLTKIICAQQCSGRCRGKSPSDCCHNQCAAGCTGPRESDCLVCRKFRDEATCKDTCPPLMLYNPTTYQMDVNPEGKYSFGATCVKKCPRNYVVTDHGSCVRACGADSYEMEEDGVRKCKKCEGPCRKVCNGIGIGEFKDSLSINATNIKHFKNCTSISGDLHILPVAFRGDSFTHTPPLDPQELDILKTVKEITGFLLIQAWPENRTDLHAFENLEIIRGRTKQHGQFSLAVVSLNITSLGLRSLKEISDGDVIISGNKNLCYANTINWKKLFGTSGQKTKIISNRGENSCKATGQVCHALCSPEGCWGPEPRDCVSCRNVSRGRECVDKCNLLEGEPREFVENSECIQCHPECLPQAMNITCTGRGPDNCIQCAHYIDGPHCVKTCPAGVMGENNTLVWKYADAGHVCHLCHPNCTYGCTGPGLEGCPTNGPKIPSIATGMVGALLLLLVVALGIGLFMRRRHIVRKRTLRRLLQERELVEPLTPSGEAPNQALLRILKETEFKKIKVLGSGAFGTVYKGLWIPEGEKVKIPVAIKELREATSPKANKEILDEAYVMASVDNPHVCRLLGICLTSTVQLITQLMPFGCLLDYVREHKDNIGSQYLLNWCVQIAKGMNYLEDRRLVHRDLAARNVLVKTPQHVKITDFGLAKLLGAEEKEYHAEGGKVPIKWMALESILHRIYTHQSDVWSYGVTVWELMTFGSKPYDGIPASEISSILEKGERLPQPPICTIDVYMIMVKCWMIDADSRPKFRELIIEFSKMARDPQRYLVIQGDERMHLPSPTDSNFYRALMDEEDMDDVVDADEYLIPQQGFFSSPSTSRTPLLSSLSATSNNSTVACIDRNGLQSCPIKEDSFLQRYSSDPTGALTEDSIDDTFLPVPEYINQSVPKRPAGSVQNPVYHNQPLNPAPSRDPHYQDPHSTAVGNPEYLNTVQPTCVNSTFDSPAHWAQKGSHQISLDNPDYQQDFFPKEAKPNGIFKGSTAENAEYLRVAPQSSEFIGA
T11 sequence (P29320 21-983): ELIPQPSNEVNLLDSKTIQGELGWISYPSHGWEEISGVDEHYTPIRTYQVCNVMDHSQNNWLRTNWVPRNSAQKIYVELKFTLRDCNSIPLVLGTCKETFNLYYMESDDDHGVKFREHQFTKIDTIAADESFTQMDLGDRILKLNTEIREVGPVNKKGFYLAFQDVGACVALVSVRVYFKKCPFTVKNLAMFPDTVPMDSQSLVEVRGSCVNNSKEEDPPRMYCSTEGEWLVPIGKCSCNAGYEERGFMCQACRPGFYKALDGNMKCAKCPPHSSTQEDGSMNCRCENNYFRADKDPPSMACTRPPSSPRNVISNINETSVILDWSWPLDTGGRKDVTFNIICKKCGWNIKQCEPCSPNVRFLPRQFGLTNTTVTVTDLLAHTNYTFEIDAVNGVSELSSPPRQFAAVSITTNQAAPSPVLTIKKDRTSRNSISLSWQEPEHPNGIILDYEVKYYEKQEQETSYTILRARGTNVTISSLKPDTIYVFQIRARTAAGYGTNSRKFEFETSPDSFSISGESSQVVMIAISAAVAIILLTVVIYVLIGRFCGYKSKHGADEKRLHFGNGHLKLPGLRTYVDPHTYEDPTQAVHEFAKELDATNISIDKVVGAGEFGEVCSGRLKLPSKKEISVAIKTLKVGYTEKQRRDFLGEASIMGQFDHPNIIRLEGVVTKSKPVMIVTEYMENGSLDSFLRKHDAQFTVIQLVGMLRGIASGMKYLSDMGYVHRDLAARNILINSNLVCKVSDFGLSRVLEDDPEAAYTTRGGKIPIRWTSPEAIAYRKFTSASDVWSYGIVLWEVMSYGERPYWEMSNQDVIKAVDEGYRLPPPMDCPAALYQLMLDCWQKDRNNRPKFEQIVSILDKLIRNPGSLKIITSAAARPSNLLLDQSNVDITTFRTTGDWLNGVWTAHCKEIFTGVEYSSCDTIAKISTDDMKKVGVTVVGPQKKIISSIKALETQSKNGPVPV
T14 sequence (P06239 whole entry): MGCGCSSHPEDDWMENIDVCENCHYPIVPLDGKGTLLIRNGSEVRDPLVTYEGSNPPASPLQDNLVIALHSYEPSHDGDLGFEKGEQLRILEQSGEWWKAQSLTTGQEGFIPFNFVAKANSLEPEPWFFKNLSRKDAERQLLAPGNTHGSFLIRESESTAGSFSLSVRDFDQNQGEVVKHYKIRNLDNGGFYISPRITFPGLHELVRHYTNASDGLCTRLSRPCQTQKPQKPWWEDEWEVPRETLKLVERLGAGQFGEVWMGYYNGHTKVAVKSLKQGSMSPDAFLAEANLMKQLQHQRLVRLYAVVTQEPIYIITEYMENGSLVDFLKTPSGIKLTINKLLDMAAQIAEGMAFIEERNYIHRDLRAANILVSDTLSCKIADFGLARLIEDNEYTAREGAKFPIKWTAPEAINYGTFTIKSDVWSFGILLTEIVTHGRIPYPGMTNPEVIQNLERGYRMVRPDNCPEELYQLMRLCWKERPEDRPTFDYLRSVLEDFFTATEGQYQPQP

remaining activity at 0.5 µM ([1]; 0.5 µM test compound): 10%
remaining activity at 10 µM ([1]; 10 µM test compound): 6%
remaining activity at 0.5 µM ([2]; 0.5 µM test compound): 10%
remaining activity at 10 µM ([2]; 10 µM test compound): 4%
remaining activity at 0.5 µM ([3]; 0.5 µM test compound): 39%
remaining activity at 10 µM ([3]; 10 µM test compound): 3%
remaining activity at 0.5 µM ([4]; 0.5 µM test compound): 49%
remaining activity at 10 µM ([4]; 10 µM test compound): 10%
remaining activity at 0.5 µM ([5]; 0.5 µM test compound): 36%
remaining activity at 10 µM ([5]; 10 µM test compound): 8%
remaining activity at 0.5 µM ([6]; 0.5 µM test compound): 28%
remaining activity at 10 µM ([6]; 10 µM test compound): 10%
remaining activity at 0.5 µM ([7]; 0.5 µM test compound): 47%
remaining activity at 10 µM ([7]; 10 µM test compound): 15%
remaining activity at 0.5 µM ([8]; 0.5 µM test compound): 47%
remaining activity at 10 µM ([8]; 10 µM test compound): 16%
remaining activity at 0.5 µM ([9]; 0.5 µM test compound): 54%
remaining activity at 10 µM ([9]; 10 µM test compound): 13%
remaining activity at 0.5 µM ([10]; 0.5 µM test compound): 54%
remaining activity at 10 µM ([10]; 10 µM test compound): 9%
remaining activity at 0.5 µM ([11]; 0.5 µM test compound): 9%
remaining activity at 10 µM ([11]; 10 µM test compound): 36%
remaining activity at 0.5 µM ([12]; 0.5 µM test compound): 57%
remaining activity at 10 µM ([12]; 10 µM test compound): 5%
remaining activity at 0.5 µM ([13]; 0.5 µM test compound): 52%
remaining activity at 10 µM ([13]; 10 µM test compound): 7%
remaining activity at 0.5 µM ([14]; 0.5 µM test compound): 50%
remaining activity at 10 µM ([14]; 10 µM test compound): 5%
SMILES: Cn1c(=O)c(-c2c(Cl)cccc2Cl)cc2c(N)nc(Nc3ccccc3)nc21 [Compound (1), 4-amino-6-(2,6-dichlorophenyl)-8-methyl-2-(phenylamino)-pyrido[2,3-d]pyrimidin-7(8H)-one]
